Results: patent publication US20110038856A1, “METHODS OF TREATING NEOPLASTIC, AUTOIMMUNE AND INFLAMMATORY DISEASES” (Seattle Genetics, Inc., priority 2006, published 2011)

Tests used:
HEL 92.1.7 cells = test: Complement-dependent cytotoxicity (CDC) on MDR+ CD33-positive AML cell line; type: cell-based, human; conditions: HEL 92.1.7 cells preincubated with drug for two hours prior to anti-CD33 Ab; FIG. 4
Procedure: The purpose of this study was to determine whether the cytotoxic effects of an anti-CD33 antibody (HuM195) on AML cells could be enhanced by combination treatment with chemotherapeutic drugs. An MDR^+, CD33-positive AML cell line (HEL 92.1.7) was either untreated or preincubated with the indicated concentrations of thalidomide or 5-azacytidine for two hours prior to exposure to the anti-CD33 Ab. Cytotoxic activity was measured using a complement-dependent cytotoxicity (CDC) activity.

HL-60 cells = test: Mouse AML model, HL-60 cells injected intravenously; type: in vivo, mice
Procedure: Mice were implanted with an AML cell line, HL-60, as follows: 5 million HL-60 cells were injected intravenously. The mice were treated with lintuzumab (10 mg/kg, q4d×4, ip), cytarabine (1 mg/kg, 5 mg/kg or 25 mg/kg, q1d×10, or 50 mg/kg or 100 mg/kg, q2d×5, ip) or lintuzumab with cytarabine (dosed as described previously). Treatment began on day one.
To confirm the data of the in vitro study, mice were implanted with an AML cell line, HL-60, as follows: 5 million HL-60 cells were injected intravenously. […] Treatment began on day one.

target cells = test: ADCC activity, standard 51Cr release assay with NK cells; type: cell-based; conditions: NK cells pre-treated for 2 to 3 h with drug prior to addition to target cells; FIG. 23
Procedure: Viable NK cells were pre-treated for 2 to 3 h with lenalidomide or thalidomide (as described in FIG. 23) prior to addition to target cells.

[1] = Effector function (ADCC or CDC activity) of deglycosylated antibody; type: cell-based; conditions: data not shown; unlike the intact antibody
CD33 [2] = biological target: T1, CD33 (Homo sapiens, UniProt P20138); test: SGN-33 signaling in HL-60 cells, primary human monocytes and macrophages (CD33 immunoprecipitation, Western blot); type: cell-based; parameters: endogenous in cells; host or cells: HL-60 (ATCC); primary human CD14+ monocytes (Cambrex); macrophages derived from human PBMCs; conditions: HL-60 and monocytes; 30 minutes; FIG. 16
T1 sequence (P20138 18-364): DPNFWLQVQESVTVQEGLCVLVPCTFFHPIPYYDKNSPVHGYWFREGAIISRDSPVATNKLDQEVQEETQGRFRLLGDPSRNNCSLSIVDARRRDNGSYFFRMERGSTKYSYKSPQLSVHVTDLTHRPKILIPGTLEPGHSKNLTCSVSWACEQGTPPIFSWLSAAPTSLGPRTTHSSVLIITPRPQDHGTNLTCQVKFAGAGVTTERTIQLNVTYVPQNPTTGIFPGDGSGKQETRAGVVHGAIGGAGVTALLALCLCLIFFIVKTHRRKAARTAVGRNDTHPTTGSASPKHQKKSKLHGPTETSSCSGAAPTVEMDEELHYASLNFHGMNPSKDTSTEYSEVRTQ
Procedure: Deglycosylation was confirmed by CE-SDS. […] Cell lysates were prepared and CD33 immunoprecipitated using an anti-CD33 rabbit polyclonal antibody (Santa Cruz Biotechnology, Santa Cruz, Calif.) prior to SDS PAGE gel electrophoresis. Western blot analyses of these samples were performed using the 4G10 phosphotyrosine antibody (Upstate Biotechnology, Temucula, Calif.), anti-CD33 antibody (NovoCastra, Norwell, Mass.), and anti-SHP-1 antibody (Calbiochem, San Diego, Calif.). Control lysate for SHP-1 was prepared from a B cell lymphoma cell line.

CD33 [3] = biological target: T1, CD33; test: Binding of deglycosylated SGN-33 to CD33 by ELISA; conditions: data not shown
[4] = test system: primary human macrophages; test: Macrophage migration in response to chemoattractants (CytoSelect Cell Migration Assay); type: cell-based; conditions: 10% human serum or 20% conditioned media from RPMI 8226 cells; p<0.05; FIG. 21
Procedure: (§1) The migration of macrophages in response to challenge with plating media containing 10% human serum, 20% conditioned tumor cell media, or 50 ng/ml TGF-β, VEGF, TNF-α, or IFN-γ was evaluated using the CytoSelect Cell Migration Assay (Cell Biolabs, San Diego, Calif.). […] The study was stopped 18 hours later and migration was evaluated after dissociation of the cells from the membrane followed by detection with Cyquant GR dye.
as §1, with “serum or” for “serum,”, “media” for “media, or 50 ng/ml TGF-β, VEGF, TNF-α, or IFN-γ”, “studies were” for “study was”, “h” for “hours”

Nc1ncn([C@@H]2O[C@H](CO)[C@@H](O)[C@H]2O)c(=O)n1 [5-azacytidine]
sensitivity of MDR+ AML cells to HuM195-mediated CDC activity (HEL 92.1.7 cells): enhanced the sensitivity

Nc1ccn([C@@H]2O[C@H](CO)[C@@H](O)[C@@H]2O)c(=O)n1 [cytarabine, reference compound]
percent survival rates compared to untreated controls (HL-60 cells; low doses of cytarabine alone, ip, FIG. 22): increasing percent survival rates

Nc1cccc2c1CN(C1CCC(=O)NC1=O)C2=O (stereo not shown) [lenalidomide, reference compound]
day by which mice were removed from study due to tumor progression (HL-60 cells; lenalidomide 25 mg/kg, qd×3, ip alone, control mice about day 60, FIG. 24): ~90 days | SGN-33 mediated ADCC (target cells): enhance SGN-33 mediated ADCC

O=C1CCC(N2C(=O)c3ccccc3C2=O)C(=O)N1 (stereo not shown) [thalidomide]
SGN-33 mediated ADCC (target cells): enhance SGN-33 mediated ADCC | sensitivity of MDR+ AML cells to HuM195-mediated CDC activity (HEL 92.1.7 cells): enhanced the sensitivity

deglycosylated SGN-33: SGN-33 treated with PN-glycosidase F; does not interact with Fc receptors
effector function, including ADCC or CDC activity [1]: did not mediate effector function | recruitment of SHP-1 to the CD33 complex (CD33 [2]): resulted in recruitment of SHP-1 | binding to CD33 (CD33 [3]): confirmed | macrophage migration [4]: significantly reduced
